9 compounds from US10730913B1, “Antimicrobial analogues of gramicidin S” (priority 2018, dated 2020) can be followed below.

Common to all, as to assay type: cell-based
In one data set the test system is Acinetobacter baumannii. In words: MIC determination against ESKAPE pathogens (broth culture, 96-well, turbidity). As to conditions: Acinetobacter baumannii strain 5075; 37° C. How it is done: (§1) The antimicrobial activity of the compounds disclosed herein was tested against a variety of bacteria. The bacterial strains comprised a panel of drug-resistant gram-positive and gram-negative bacteria known as ESKAPE pathogens. The minimum inhibitory concentration (MIC) for the compounds were determined as follows. Broth cultures of ESKAPE strains were grown overnight before being diluted 1 in 1000 in fresh media. Sterile 96-well plates were loaded with culture, and compounds (in DMSO) were added at decreasing concentrations to equal a total volume of 200 μL per well. Care was taken to not add more than 2.0% DMSO to any well. Plates were then incubated at 37° C., and MICs determined after 24 h by visual inspection for a lack of turbidity in wells. All assays were performed in triplicate with identical results obtained.

A further data set concerns Staphylococcus aureus. The data set is described as above. As to conditions: Staphylococcus aureus strain 635; 37° C. How it is done:
as §1

The test system of the next data set is Enterobacter cloacae. The data set is described as above. As to conditions: Enterobacter cloacae strain 1454; 37° C. How it is done:
as §1

Another data set concerns Pseudomonas aeruginosa. The description is as above. The conditions noted are these: Pseudomonas aeruginosa strain 1419; 37° C. The procedure: as §1
The subject of another data set is Enterococcus faecium. Described as above. The conditions noted are these: Enterococcus faecium strain 1450; 37° C. How it is done:
as §1

Data set [1] concerns Human red blood cells (hRBCs). In words: Hemolysis assay using whole human blood. As to conditions: for Hemolytic Activity (% Hemolysis): hRBCs, 15 min at 37° C., relative to 1.0% triton X-100. How it is done: Hemolytic Activity: The hemolytic activity of the compounds disclosed herein was also tested. A hemolysis assay was performed using whole human blood (Bioreclamation). […] Cells were incubated for 15 min at 37° C. before being centrifuged at 5500 g for 1 min to pellet nonlysed hRBCs. The supernatant was removed, added to a 96-well microtiter plate, and the OD543 was read using a Biotek synergy2 plate reader. The negative control was vehicle only (DMSO), and the positive control was 1.0% triton X-100.

The subject of the next data set is gram-negative bacteria. In words: Antimicrobial activity, summary for gram-negative bacteria. The conditions noted are these: compared to GS. The procedure: as §1

Numbered stars: 1 amine (or outer) side, 2 acyl side, 3 side chain; on linkers, the order of the positions; unused ones are H or OH. Square brackets hold non-standard residues; d marks the D form. Peptide text beside a SMILES is read from it. X1 = NN([C@H](Cc1ccccc1)C(=O)[*:2])[*:1]; Orn(Nα-NH2) = NCCC[C@H](NN)C(=O)O; Orn = NCCC[C@H](N)C(=O)O

`CC(C)C[C@@H]1NC(=O)[C@H](CCCN)NC(=O)[C@H](C(C)C)NC(=O)[C@@H]2CCCN2C(=O)[C@@H](Cc2ccccc2)N(N)C(=O)[C@H](CC(C)C)NC(=O)[C@H](CCCN)NC(=O)[C@H](C(C)C)NC(=O)[C@@H]2CCCN2C(=O)[C@@H](Cc2ccccc2)NC1=O` [Compound 1] (HELM PEPTIDE1{L.[dF].P.V.[Orn].L.[NN([C@H](Cc1ccccc1)C(=O)[*:2])[*:1]].P.V.[Orn]}$PEPTIDE1,PEPTIDE1,1:R1-10:R2$$$V2.0): the “MC90 Results, Ab (−)” value with Acinetobacter baumannii was >50 µM. In addition, in the data set on Staphylococcus aureus, the “MC90 Results, Sa (+)” value is >50 µM. For the same compound, the “MC90 Results, Ec (−)” value in the data set on Enterobacter cloacae was >50 µM. Also, the “MC90 Results, Pa (−)” value in the data set with Pseudomonas aeruginosa is >50 µM. In the data set on Enterococcus faecium, the “MC90 Results, Ef (+)” value is >50 µM. Besides, the “Hemolytic Activity (% Hemolysis)” value in data set [1] (6.25 μM), in data set [1] (12.5 μM), in data set [1] (25 μM) and in data set [1] (50 μM) was 0.00% each time.
For the compound `CC(C)C[C@@H]1NC(=O)[C@H](CCCN)NC(=O)[C@H](C(C)C)NC(=O)[C@@H]2CCCN2C(=O)[C@@H](Cc2ccccc2)N(N)C(=O)[C@H](CC(C)C)NC(=O)[C@H](CCCN)NC(=O)[C@H](C(C)C)NC(=O)[C@@H]2CCCN2C(=O)[C@@H](Cc2ccccc2)N(N)C1=O` [Compound 2] (HELM PEPTIDE1{L.[NN([C@H](Cc1ccccc1)C(=O)[*:2])[*:1]].P.V.[Orn].L.[NN([C@H](Cc1ccccc1)C(=O)[*:2])[*:1]].P.V.[Orn]}$PEPTIDE1,PEPTIDE1,1:R1-10:R2$$$V2.0), the “MC90 Results, Ab (−)” value in the data set with Acinetobacter baumannii is 12.5 µM. Besides, the “MC90 Results, Sa (+)” value with Staphylococcus aureus came to 4 µM. For the same compound, in the data set on Enterobacter cloacae, the “MC90 Results, Ec (−)” value is >50 µM. For the same compound, the “MC90 Results, Pa (−)” value in the data set with Pseudomonas aeruginosa turned out to be 35 µM. Moreover, in the data set with Enterococcus faecium, the “MC90 Results, Ef (+)” value is 4 µM. For the same compound, the “Hemolytic Activity (% Hemolysis)” value was 0.00% in data set [1] (6.25 μM), 0.00% in data set [1] (12.5 μM), 2.84% in data set [1] (25 μM) and 11.24% in data set [1] (50 μM).
Consider `CC(C)C[C@@H]1NC(=O)[C@H](CCCN)NC(=O)[C@H](C(C)C)NC(=O)[C@@H]2CCCN2C(=O)[C@@H](Cc2ccccc2)NC(=O)[C@H](CC(C)C)NC(=O)[C@H](CCCN)N(N)C(=O)[C@H](C(C)C)NC(=O)[C@@H]2CCCN2C(=O)[C@@H](Cc2ccccc2)NC1=O` [Compound 3] (HELM PEPTIDE1{L.[dF].P.V.[Orn].L.[dF].P.V.[NCCC[C@@H](C(=O)[*:2])N(N)[*:1]]}$PEPTIDE1,PEPTIDE1,1:R1-10:R2$$$V2.0), for which the “MC90 Results, Ab (−)” value in the data set with Acinetobacter baumannii stood at 6.5 µM. Also, the “MC90 Results, Sa (+)” value in the data set with Staphylococcus aureus is 2 µM. Further, the “MC90 Results, Ec (−)” value with Enterobacter cloacae worked out at 30 µM. For the same compound, the “MC90 Results, Pa (−)” value in the data set with Pseudomonas aeruginosa amounted to 13 µM. Besides, the “MC90 Results, Ef (+)” value with Enterococcus faecium is 3 µM. For the same compound, the “Hemolytic Activity (% Hemolysis)” value in data set [1] (6.25 μM) turned out to be 0.00%; in data set [1] (12.5 μM) it was 0.00%; in data set [1] (25 μM), 1.49%; in data set [1] (50 μM), 13.68%.
With `CC(C)C[C@@H]1NC(=O)[C@H](CCCN)N(N)C(=O)[C@H](C(C)C)NC(=O)[C@@H]2CCCN2C(=O)[C@@H](Cc2ccccc2)N(N)C(=O)[C@H](CC(C)C)NC(=O)[C@H](CCCN)NC(=O)[C@H](C(C)C)NC(=O)[C@@H]2CCCN2C(=O)[C@@H](Cc2ccccc2)NC1=O` [Compound 4] (HELM PEPTIDE1{L.[dF].P.V.[Orn].L.[NN([C@H](Cc1ccccc1)C(=O)[*:2])[*:1]].P.V.[NCCC[C@@H](C(=O)[*:2])N(N)[*:1]]}$PEPTIDE1,PEPTIDE1,1:R1-10:R2$$$V2.0), the “MC90 Results, Ab (−)” value with Acinetobacter baumannii worked out at 6.5 µM. Moreover, the “MC90 Results, Sa (+)” value in the data set with Staphylococcus aureus amounted to 2 µM. For the same compound, in the data set on Enterobacter cloacae, the “MC90 Results, Ec (−)” value amounted to 30 µM. In the data set with Pseudomonas aeruginosa, the “MC90 Results, Pa (−)” value stood at 15 µM. For the same compound, the “MC90 Results, Ef (+)” value with Enterococcus faecium worked out at 3 µM. The “Hemolytic Activity (% Hemolysis)” value in data set [1] (6.25 μM) is given as 0.00%; in data set [1] (12.5 μM), 0.00%; in data set [1] (25 μM), 1.98%; in data set [1] (50 μM), 14.00%.
Consider `CC(C)C[C@@H]1NC(=O)[C@H](CCCN)NC(=O)[C@H](C(C)C)NC(=O)[C@@H]2CCCN2C(=O)[C@@H](Cc2ccccc2)N(N)C(=O)[C@H](CC(C)C)NC(=O)[C@H](CCCN)N(N)C(=O)[C@H](C(C)C)NC(=O)[C@@H]2CCCN2C(=O)[C@@H](Cc2ccccc2)N(N)C1=O` [Compound 5] (cyclo(L[X1]PV[Orn]L[X1]PV[Orn(Nα-NH2)])), for which the “Hemolytic Activity (% Hemolysis)” value in data set [1] (6.25 μM) is 0.21%; in data set [1] (12.5 μM), 0.00%; in data set [1] (25 μM), 2.82%; in data set [1] (50 μM) it was 17.93%.
With `CC(C)C[C@@H]1NC(=O)[C@H](CCCN)NC(=O)[C@H](C(C)C)NC(=O)[C@@H]2CCCN2C(=O)[C@@H](Cc2ccccc2)N(N)C(=O)[C@H](CC(C)C)NC(=O)[C@H](CCCN)N(N)C(=O)[C@H](C(C)C)NC(=O)[C@@H]2CCCN2C(=O)[C@@H](Cc2ccccc2)NC1=O` [Compound 6] (HELM PEPTIDE1{L.[dF].P.V.[NCCC[C@@H](C(=O)[*:2])N(N)[*:1]].L.[NN([C@H](Cc1ccccc1)C(=O)[*:2])[*:1]].P.V.[Orn]}$PEPTIDE1,PEPTIDE1,1:R1-10:R2$$$V2.0), the “Hemolytic Activity (% Hemolysis)” value in data set [1] (6.25 μM) is given as 0.00%; in data set [1] (12.5 μM) it was 0.00%; in data set [1] (25 μM), 3.24%; in data set [1] (50 μM) it was 17.91%.
As to `CC(C)C[C@@H]1NC(=O)[C@H](CCCN)N(N)C(=O)[C@H](C(C)C)NC(=O)[C@@H]2CCCN2C(=O)[C@@H](Cc2ccccc2)NC(=O)[C@H](CC(C)C)NC(=O)[C@H](CCCN)N(N)C(=O)[C@H](C(C)C)NC(=O)[C@@H]2CCCN2C(=O)[C@@H](Cc2ccccc2)NC1=O` [Compound 7] (HELM PEPTIDE1{L.[dF].P.V.[NCCC[C@@H](C(=O)[*:2])N(N)[*:1]].L.[dF].P.V.[NCCC[C@@H](C(=O)[*:2])N(N)[*:1]]}$PEPTIDE1,PEPTIDE1,1:R1-10:R2$$$V2.0), in the data set with gram-negative bacteria, the “activity against gram-negative bacteria” value is recorded as “improved significantly”. The “MC90 Results, Ab (−)” value in the data set on Acinetobacter baumannii is 4 µM. The “MC90 Results, Sa (+)” value with Staphylococcus aureus amounted to 2 µM. Moreover, the “MC90 Results, Ec (−)” value in the data set with Enterobacter cloacae was 20 µM. The “MC90 Results, Pa (−)” value in the data set on Pseudomonas aeruginosa is 10 µM. For the same compound, the “MC90 Results, Ef (+)” value in the data set on Enterococcus faecium was 2 µM. Moreover, the “Hemolytic Activity (% Hemolysis)” value in data set [1] (6.25 μM) was 0.00%; in data set [1] (12.5 μM), 0.21%; in data set [1] (25 μM) it was 3.57%; in data set [1] (50 μM), 15.84%.
On to `CC(C)C[C@@H]1NC(=O)[C@H](CCCN)N(N)C(=O)[C@H](C(C)C)NC(=O)[C@@H]2CCCN2C(=O)[C@@H](Cc2ccccc2)N(N)C(=O)[C@H](CC(C)C)NC(=O)[C@H](CCCN)N(N)C(=O)[C@H](C(C)C)NC(=O)[C@@H]2CCCN2C(=O)[C@@H](Cc2ccccc2)NC1=O` [Compound 8] (cyclo(L[dF]PV[Orn(Nα-NH2)]L[X1]PV[Orn(Nα-NH2)])), for which the “MC90 Results, Ab (−)” value with Acinetobacter baumannii stood at 6 µM. Besides, the “MC90 Results, Sa (+)” value in the data set with Staphylococcus aureus was determined as 2 µM. For the same compound, in the data set on Enterobacter cloacae, the “MC90 Results, Ec (−)” value was >50 µM. For the same compound, the “MC90 Results, Pa (−)” value with Pseudomonas aeruginosa is 12 µM. The “MC90 Results, Ef (+)” value in the data set with Enterococcus faecium turned out to be 2 µM. Besides, the “Hemolytic Activity (% Hemolysis)” value was found to be 0.00% in data set [1] (6.25 μM), 0.88% in data set [1] (12.5 μM), 2.91% in data set [1] (25 μM) and 15.07% in data set [1] (50 μM).
Consider `CC(C)C[C@@H]1NC(=O)[C@H](CCCN)N(N)C(=O)[C@H](C(C)C)NC(=O)[C@@H]2CCCN2C(=O)[C@@H](Cc2ccccc2)N(N)C(=O)[C@H](CC(C)C)NC(=O)[C@H](CCCN)N(N)C(=O)[C@H](C(C)C)NC(=O)[C@@H]2CCCN2C(=O)[C@@H](Cc2ccccc2)N(N)C1=O` [Compound 9] (cyclo(L[X1]PV[Orn(Nα-NH2)]L[X1]PV[Orn(Nα-NH2)])), for which, in the data set with Acinetobacter baumannii, the “MC90 Results, Ab (−)” value was determined as 5 µM. The “MC90 Results, Sa (+)” value in the data set on Staphylococcus aureus was 2 µM. Moreover, the “MC90 Results, Ec (−)” value with Enterobacter cloacae is >50 µM. Moreover, in the data set with Pseudomonas aeruginosa, the “MC90 Results, Pa (−)” value is 15 µM. The “MC90 Results, Ef (+)” value in the data set with Enterococcus faecium worked out at 2 µM. In addition, the “toxicity to human cells compared to GS” value in data set [1] is listed as “exception”. The “Hemolytic Activity (% Hemolysis)” value in data set [1] (6.25 μM) was found to be 0.00%; in data set [1] (12.5 μM) it was 2.75%; in data set [1] (25 μM) it was 6.19%; in data set [1] (50 μM) it was 25.01%.
